Measured values taken from patent US7034040B2, “Fluorinated heterocyclic compounds and methods of synthesis” (R.T. Alamo Ventures I, priority 2002, dated 2006).
Blank lines part the entries; values can stand above or below the molecule they belong to.

Legend:
[1] = test system: Protein Serine/Threonine Kinase PKC, Non-Selective; test: Protein serine/threonine kinase PKC, non-selective, enzyme assay; assay type: biochemical; settings: rat brain enzyme
Source text: In this example, monofluoroflosequinan was subjected to biochemical enzyme assays and radioligand binding assays to determine its percent inhibition of a variety of enzyme activities and its percent inhibition of specific binding. The methods used have been adapted from those described in the scientific literature, see Hidaka and Asano “Human blood platelet 3′:5′ cyclic nucleotide phosphodiesterase. Isolation of low-Km and high Km phosphodiesterase.” Biochem. Biophys. Acta 429:485 (1976); Nicholoson et al. “Differential modulation of tissue function and therapeutic potential of selective inhibitors of cyclic nucleotide phosphodiesterase isoenzymes” Trends Pharmacol. Sci. 12:19 (1991); Cortijo et al. “Investigation into the role of phosphodiesterase IV in bronchorelaxation, including studies with hyman bronchus.” Br. J Pharmacol. 108:562 (1993); Baehr et al. “Isolation and characterization of cGMP phosphodiesterase from bovine rod outer segments.” J. Biol. Chem. 254:11669 (1979), Gillespie and Beavo “Inhibition and stimulation of photoreceptor phosphodiesterase by dipyridamole and M&B 22,948” Molecular Pharm. 36:773 (1989); Tamaoki and Nakano “Potent and specific inhibitors of protein kinase C of microbial origin” Biotechnology 8:732 (1990); Wilkinson et al. “Isoenzyme specificity of bisindolymaleimides, selective inhibitors of protein kinase C” Biochem. J 294:335 (1993); Tamaki et al. “Staurosporine, a potent inhibitor of phospholipid/Ca++dependent protein kinase” Biochem. Biophys. Res. Comm, 135:397 (1986); Schoemaker and Langer “[3H]Diltiazem binding to calcium channel antagonist recognition sites in rate cerebral cortex” Eur. J Pharmacol. 111:273 (1985); Ehlert et al. “The binding of [3H]nitrendipine to receptors for calcium channel antagonists in the heart, cerebral cortex and ileum of rats.” Life Sci. 30:2191 (1982); Gould et al. “[3H]nitrendipine-labeled calcium channels discriminate inorganic calcium agonists and antagonists” Proc. Natl. Acad. Sci. USA 79:3656 (1982); Reynolds et al. “(−)−[3H]Desmethoxyverapamil labels multiple calcium channel modulator receptors in brain and skeletal muscle membranes: Differentiation by temperature and dihydropyridines” J Pharmacol. Exp. Ther. 237:731 (1986) and Worley et al. “Characterization of inositol triphosphate receptor binding in brain. Regulation by pH and calcium” J Biol. Chem. 262:12132 (1987). A brief summary of the conditions for each assay is provided below:
Protein Serine/Threonine Kinase PKC, Non-Selective: The enzyme was obtained from rat brain and the substrate was 370 μg/ml histone. The reaction was pre-incubated 5 min at 25° C., followed by a 15 min incubation at 25° C. in a buffer of 20 mM Tris-HCl, 10 mM MgCl2.Ho and 0.1 mM CaCl2.2HO, pH 7.4. [^32P]histone was quantitated.

PDE1 = PDE1 enzyme inhibition assay; assay type: biochemical; settings: 1000 μM compound, 1% DMSO vehicle, bovine heart enzyme
Source text: (§1) In this example, monofluoroflosequinan was subjected to biochemical enzyme assays and radioligand binding assays to determine its percent inhibition of a variety of enzyme activities and its percent inhibition of specific binding. The methods used have been adapted from those described in the scientific literature, see Hidaka and Asano “Human blood platelet 3′:5′ cyclic nucleotide phosphodiesterase. Isolation of low-Km and high Km phosphodiesterase.” Biochem. Biophys. Acta 429:485 (1976); Nicholoson et al. “Differential modulation of tissue function and therapeutic potential of selective inhibitors of cyclic nucleotide phosphodiesterase isoenzymes” Trends Pharmacol. Sci. 12:19 (1991); Cortijo et al. “Investigation into the role of phosphodiesterase IV in bronchorelaxation, including studies with hyman bronchus.” Br. J Pharmacol. 108:562 (1993); Baehr et al. “Isolation and characterization of cGMP phosphodiesterase from bovine rod outer segments.” J. Biol. Chem. 254:11669 (1979), Gillespie and Beavo “Inhibition and stimulation of photoreceptor phosphodiesterase by dipyridamole and M&B 22,948” Molecular Pharm. […]
PDE1: PDE1 partially purified from bovine heart was used. […] Unhydrolyzed cAMP was bound to AGI-X2 resin, and the remaining [^3H]adenosine in the aqueous phase was quantitated by scintillation counting.

PDE3 = molecular target: T1, PDE3 (Homo sapiens, UniProt Q14432); test: PDE3 enzyme inhibition assay; assay type: biochemical; settings: 1000 μM compound, 1% DMSO vehicle, human platelet enzyme
T1 construct: PDE3 partially purified from human platelets was used; from tissue; host or cells: human platelets
Source text: as §1
PDE3: PDE3 partially purified from human platelets was used. […] Unhydrolyzed cAMP was bound to AGI-X2 resin, and the remaining [^3H]adenosine in the aqueous phase was quantitated by scintillation counting.

PDE4 = PDE4 enzyme inhibition assay; assay type: biochemical; settings: 1000 μM compound, 1% DMSO vehicle, human U-937 cell enzyme
Source text: as §1
PDE4: PDE4 partially purified from human U-937 pronocytic cells was used. […] Unhydrolyzed cAMP was bound to AGI-X2 resin, and the remaining [^3H]adenosine in the aqueous phase was quantitated by scintillation counting.

[2] = molecular target: Calcium Channel Type L, Dihydropyridine; settings: Wistar rat cerebral cortex, 90 min at 25° C.; read-out: Kd (historical value of the radioligand); cited from earlier work

T1 sequence (Q14432 whole entry): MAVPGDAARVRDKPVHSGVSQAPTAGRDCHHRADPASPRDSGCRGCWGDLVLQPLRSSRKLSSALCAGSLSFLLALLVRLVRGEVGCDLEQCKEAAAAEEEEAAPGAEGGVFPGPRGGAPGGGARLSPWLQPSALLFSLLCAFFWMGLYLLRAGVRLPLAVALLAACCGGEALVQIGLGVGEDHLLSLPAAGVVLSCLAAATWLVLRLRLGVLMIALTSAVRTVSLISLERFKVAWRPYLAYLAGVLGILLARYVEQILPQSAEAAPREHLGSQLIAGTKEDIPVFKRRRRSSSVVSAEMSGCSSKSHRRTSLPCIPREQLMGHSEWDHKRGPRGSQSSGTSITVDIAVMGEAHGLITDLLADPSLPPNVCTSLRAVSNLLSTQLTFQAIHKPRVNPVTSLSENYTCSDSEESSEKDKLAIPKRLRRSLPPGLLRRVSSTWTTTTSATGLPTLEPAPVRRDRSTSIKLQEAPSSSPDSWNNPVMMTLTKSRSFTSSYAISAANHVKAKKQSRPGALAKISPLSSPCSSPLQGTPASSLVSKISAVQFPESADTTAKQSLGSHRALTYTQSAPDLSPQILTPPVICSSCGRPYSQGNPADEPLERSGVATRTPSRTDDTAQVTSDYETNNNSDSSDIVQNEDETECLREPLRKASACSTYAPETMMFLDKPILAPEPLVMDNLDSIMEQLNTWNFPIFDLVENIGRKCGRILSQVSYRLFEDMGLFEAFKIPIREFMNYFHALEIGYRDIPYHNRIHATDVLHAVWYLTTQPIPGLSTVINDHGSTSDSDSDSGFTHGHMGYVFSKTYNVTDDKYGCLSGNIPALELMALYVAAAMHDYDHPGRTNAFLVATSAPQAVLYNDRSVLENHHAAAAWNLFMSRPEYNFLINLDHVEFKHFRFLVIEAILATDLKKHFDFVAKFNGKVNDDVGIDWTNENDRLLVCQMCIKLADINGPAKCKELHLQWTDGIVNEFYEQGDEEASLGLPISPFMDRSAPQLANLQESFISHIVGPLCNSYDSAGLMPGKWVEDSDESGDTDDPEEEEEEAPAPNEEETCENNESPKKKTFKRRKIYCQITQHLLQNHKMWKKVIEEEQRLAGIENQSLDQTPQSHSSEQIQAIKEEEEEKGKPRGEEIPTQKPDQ

- inhibition of protein serine/threonine kinase, PKC, non-selective ([1]; 100 μM compound): Significant inhibition
- inhibition of protein serine/threonine kinase, PKC, non-selective ([1]; 300 μM compound): Significant inhibition
- inhibition of protein serine/threonine kinase, PKC, non-selective ([1]; 1000 μM compound, 1% DMSO vehicle): Significant inhibition
SMILES: Cn1cc([S+]([O-])CF)c(=O)c2ccc(F)cc21 (racemic) [monofluoroflosequinan, 7-fluoro-3-fluoromethylsulfinyl-1-methyl-4-quinolone]

- inhibition of PDE1 (PDE1): greater than 50%
- inhibition at 1000 µM (PDE3): > 50%
- inhibition of PDE4 (PDE4): greater than 50%
SMILES: Cn1cc(S(=O)(=O)C(F)F)c(=O)c2ccc(F)cc21 [3-difluoromethylsulfonyl-7-fluoro-1-methyl-4-quinolone]

SMILES: CCOC(=O)C1=C(C)NC(C)=C(C(=O)OC)C1c1cccc([N+](=O)[O-])c1 (stereo not shown) [^3H Nitrendipine]
- Kd [2]: 0.18 nM

- inhibition of PDE1 (PDE1): greater than 50%
- inhibition at 1000 µM (PDE3): > 50%
- inhibition of protein serine/threonine kinase, PKC, non-selective ([1]; 1000 μM compound): greater than 50%
SMILES: Cn1cc([S+]([O-])C(F)F)c(=O)c2ccc(F)cc21 (stereo not shown) [difluoroflosequinan, 3-difluoromethylsulfinyl-7-fluoro-1-methyl-4-quinolone]
